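Exposure lasted 48 hours, with cells grown in 96-well plates and compounds tested at five concentrations. GI50: concentration for 50% inhibition of growth. The concentration for full growth arrest is given as TGI.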
Experiments:
Test in all cases: NCI-60 cell line screen, 48 h
[1] = test system: 786-0 renal
[2] = test system: A498 renal
[3] = test system: A549 NSCLC
[4] = test system: ACHN renal
[5] = test system: BT-549 breast
[6] = test system: CAKI-1 renal
[7] = test system: CCRF-CEM leukemia
[8] = test system: COLO 205 colon
[9] = test system: DU-145 prostate
[10] = test system: EKVX NSCLC
[11] = test system: HCC-2998 colon
[12] = test system: HCT-116 colon
[13] = test system: HCT-15 colon
[14] = test system: HL-60(TB) leukemia
[15] = test system: HOP-62 NSCLC
[16] = test system: HOP-92 NSCLC
[17] = test system: HS 578T breast
[18] = test system: HT29 colon
[19] = test system: IGROV1 ovarian
[20] = test system: K-562 leukemia
[21] = test system: KM12 colon
[22] = test system: LOX IMVI melanoma
[23] = test system: M14 melanoma
[24] = test system: MALME-3M melanoma
[25] = test system: MCF7 breast
[26] = test system: MDA-MB-231 breast
[27] = test system: MDA-MB-435
[28] = test system: MOLT-4 leukemia
[29] = test system: NCI-H226 lung
[30] = test system: NCI-H23 lung
[31] = test system: NCI-H460 lung
[32] = test system: NCI-H522 lung
[33] = test system: NCI/ADR-RES ovarian
[34] = test system: OVCAR-3 ovarian
[35] = test system: OVCAR-4 ovarian
[36] = test system: OVCAR-5 ovarian
[37] = test system: OVCAR-8 ovarian
[38] = test system: PC-3 prostate
[39] = test system: RPMI-8226 leukemia
[40] = test system: RXF 393 renal
[41] = test system: SF-268 CNS
[42] = test system: SF-295 CNS
[43] = test system: SF-539 CNS
[44] = test system: SK-MEL-2 melanoma
[45] = test system: SK-MEL-28 melanoma
[46] = test system: SK-MEL-5 melanoma
[47] = test system: SK-OV-3 ovarian
[48] = test system: SN12C renal
[49] = test system: SNB-19 CNS
[50] = test system: SNB-75 CNS
[51] = test system: SR leukemia
[52] = test system: SW-620 colon
[53] = test system: TK-10 renal
[54] = test system: U251 CNS
[55] = test system: UACC-257 melanoma
[56] = test system: UACC-62 melanoma
[57] = test system: UO-31 renal
[58] = test system: T-47D breast

C=CCNCCCN1C(=O)c2ccc3c4c(ccc(c24)C1=O)C(=O)N(CCCNCC=C)C3=O
GI50 [1]: 831 nM
TGI [1]: 4700 nM
GI50 [2]: 394 nM
TGI [2]: 1760 nM
GI50 [3]: 226 nM
TGI [3]: 605 nM
GI50 [4]: 268 nM
TGI [4]: 4380 nM
GI50 [5]: 1780 nM
TGI [5]: 3630 nM
GI50 [6]: 340 nM
TGI [6]: 1970 nM
GI50 [7]: 349 nM
TGI [7]: 3780 nM
GI50 [8]: 172 nM
TGI [8]: 335 nM
GI50 [9]: 311 nM
TGI [9]: 857 nM
GI50 [10]: 295 nM
TGI [10]: 1090 nM
GI50 [11]: 428 nM
TGI [11]: 1540 nM
GI50 [12]: 279 nM
TGI [12]: 3390 nM
GI50 [13]: 413 nM
TGI [13]: 2380 nM
GI50 [14]: 383 nM
TGI [14]: 1410 nM
GI50 [15]: 372 nM
TGI [15]: 1720 nM
GI50 [16]: 1560 nM
TGI [16]: 7830 nM
GI50 [17]: 1300 nM
TGI [17]: 5160 nM
GI50 [18]: 157 nM
TGI [18]: 499 nM
GI50 [19]: 325 nM
TGI [19]: 1200 nM
GI50 [20]: 296 nM
TGI [20]: 1480 nM
GI50 [21]: 417 nM
TGI [21]: 1620 nM
GI50 [22]: 316 nM
TGI [22]: 970 nM
GI50 [23]: 470 nM
TGI [23]: 1660 nM
GI50 [24]: 258 nM
TGI [24]: 617 nM
GI50 [25]: 157 nM
TGI [25]: 336 nM
GI50 [26]: 681 nM
TGI [26]: 5910 nM
GI50 [27]: 199 nM
TGI [27]: 434 nM
GI50 [28]: 335 nM
TGI [28]: 1680 nM
GI50 [29]: 292 nM
TGI [29]: 987 nM
GI50 [30]: 392 nM
TGI [30]: 1420 nM
GI50 [31]: 195 nM
TGI [31]: 448 nM
GI50 [32]: 336 nM
TGI [32]: 1340 nM
GI50 [33]: 1740 nM
TGI [33]: 12600 nM
GI50 [34]: 298 nM
TGI [34]: 889 nM
GI50 [35]: 143 nM
TGI [35]: 307 nM
GI50 [36]: 596 nM
TGI [36]: 4940 nM
GI50 [37]: 312 nM
TGI [37]: 2110 nM
GI50 [38]: 589 nM
TGI [38]: 11000 nM
GI50 [39]: 385 nM
TGI [39]: 3550 nM
GI50 [40]: 344 nM
TGI [40]: 1520 nM
GI50 [41]: 557 nM
TGI [41]: 4410 nM
GI50 [42]: 200 nM
TGI [42]: 955 nM
GI50 [43]: 584 nM
TGI [43]: 2410 nM
GI50 [44]: 364 nM
TGI [44]: 1700 nM
GI50 [45]: 1060 nM
TGI [45]: 2600 nM
GI50 [46]: 182 nM
TGI [46]: 395 nM
GI50 [47]: 775 nM
TGI [47]: 3610 nM
GI50 [48]: 399 nM
TGI [48]: 1780 nM
GI50 [49]: 592 nM
TGI [49]: 1960 nM
GI50 [50]: 999 nM
TGI [50]: 2230 nM
GI50 [51]: 407 nM
TGI [51]: 2080 nM
GI50 [52]: 265 nM
TGI [52]: 1510 nM
GI50 [53]: 551 nM
TGI [53]: 6140 nM
GI50 [54]: 269 nM
TGI [54]: 1000 nM
GI50 [55]: 333 nM
TGI [55]: 1200 nM
GI50 [56]: 684 nM
TGI [56]: 1760 nM
GI50 [57]: 327 nM
TGI [57]: 2290 nM

COc1cc2nc(-c3cccs3)nc(N3C(c4ccc(O)cc4)=NNC(=O)c4ccccc43)c2cc1OC
TGI [1]: > 100000 nM
TGI [2]: > 100000 nM
TGI [3]: > 100000 nM
TGI [4]: 55000 nM
TGI [5]: 42800 nM
TGI [6]: 43900 nM
TGI [7]: > 100000 nM
TGI [8]: 52100 nM
TGI [9]: > 100000 nM
TGI [10]: 75600 nM
TGI [11]: 38500 nM
TGI [12]: 86000 nM
TGI [13]: > 100000 nM
TGI [15]: > 100000 nM
TGI [17]: > 100000 nM
TGI [18]: 67900 nM
TGI [19]: 97700 nM
TGI [20]: > 100000 nM
TGI [21]: > 100000 nM
TGI [22]: 54600 nM
TGI [23]: 79400 nM
TGI [24]: 43900 nM
TGI [25]: > 100000 nM
TGI [26]: 42600 nM
TGI [27]: 58900 nM
TGI [29]: 41400 nM
TGI [30]: 78100 nM
TGI [31]: 82100 nM
TGI [32]: > 100000 nM
TGI [33]: 44300 nM
TGI [35]: > 100000 nM
TGI [36]: 84200 nM
TGI [37]: > 100000 nM
TGI [38]: 67900 nM
TGI [39]: 47900 nM
TGI [40]: 39600 nM
TGI [41]: 77400 nM
TGI [42]: 39400 nM
TGI [43]: 23600 nM
TGI [44]: 60500 nM
TGI [45]: > 100000 nM
TGI [46]: > 100000 nM
TGI [47]: > 100000 nM
TGI [48]: 50200 nM
TGI [49]: > 100000 nM
TGI [50]: 64000 nM
TGI [52]: 79800 nM
TGI [58]: > 100000 nM
TGI [53]: 70500 nM
TGI [54]: 75900 nM
TGI [55]: 84900 nM
TGI [56]: 43000 nM
TGI [57]: 37400 nM

N#Cc1c2cccnc2c2nnc3cc(Cl)c(Cl)cc3n12
GI50 [1]: > 100000 nM
TGI [1]: > 100000 nM
GI50 [3]: > 100000 nM
TGI [3]: > 100000 nM
GI50 [7]: 3060 nM
TGI [7]: > 100000 nM
GI50 [20]: 3520 nM
TGI [20]: > 100000 nM
GI50 [28]: 3590 nM
TGI [28]: > 100000 nM
GI50 [30]: 2810 nM
TGI [30]: > 100000 nM
GI50 [34]: 1830 nM
TGI [34]: 3270 nM
GI50 [36]: > 100000 nM
TGI [36]: > 100000 nM
GI50 [41]: 2260 nM
TGI [41]: 5250 nM
GI50 [44]: 3330 nM
TGI [44]: > 100000 nM
GI50 [46]: > 100000 nM
TGI [46]: > 100000 nM
GI50 [47]: > 100000 nM
TGI [47]: > 100000 nM
GI50 [50]: 1540 nM
TGI [50]: 3960 nM
GI50 [51]: 923 nM
TGI [51]: 7510 nM
GI50 [58]: 1600 nM
TGI [58]: 4000 nM
GI50 [53]: > 100000 nM
TGI [53]: > 100000 nM

Source: PubChem BioAssay (NCI)
